Results published in patent US20090082326A1, “SOLUBLE DOSAGE FORMS CONTAINING CEPHEM DERIVATIVES SUITABLE FOR PARENTERAL ADMINISTRATION” (Forest Laboratories Holdings Limited, priority 2007, published 2009).
≈ marks a conversion by molar mass, not a printed value. Counter-ions that a name gives are not always drawn.

Tests used:
[1] = Part B: multiple-dose IM injection pharmacokinetic study in healthy human subjects; type: in vivo
Procedure: (§1) The pharmacokinetic parameters described herein include area under the plasma concentration-time curve (AUC0-t and AUC0-∞), maximum plasma concentration (Cmax), and time of maximum plasma concentration (Tmax). Terminal elimination half-life (T1/2) may also be provided. The time of maximum concentration, Tmax, is determined as the time corresponding to Cmax. Area under the plasma concentration-time curve up to the time corresponding to the last measurable concentration (AUC0-t) is calculated by numerical integration using the linear trapezoidal rule as follows:
(§2) This was a two-part randomized, single and multiple-dose study to determine pharmacokinetics of ceftaroline fosamil and its the active moiety, ceftaroline, administered parenterally (both intramuscular injection and intravenous injection).
(§3) Part A of the study was a single-dose open-label study. Part B of the study was a multiple-dose study.
Eighteen subjects were randomized to one of two treatment groups The IM injection was be administered to the alternating side of the gluteus in each subject.
(§4) The duration of the study for Treatment Groups E and F was 11 days (Days-1 through 10). Ceftaroline dosing solutions for IM injection were prepared using sterile water for injection.
(§5) The pharmacokinetic parameters for ceftaroline fosamil and ceftaroline were determined using a standard assay. Blood for pharmacokinetic parameter analysis was collected from all subjects as follows: The first blood sample was collected at about 5 minutes (about 0.06 hours) after completion of the administration. Measurement was considered essentially zero prior to this point.
(§6) Part A: 5, 15, and 30 minutes and 1, 2, 4, 6, 8, 12, 18, 24, 36 and 48 hours after injection. In addition, blood were be collected from subjects receiving IV infusion immediately prior to drug injection on day 8 and at 20, 40, 60 (immediately before the end of the study-drug infusion), 65 and 75 minutes, and 1.5, 2, 3, 4, 6, 8, 12, 24, 36 and 48 hours after the start of the drug infusion on Day 8. Part B: Drug injection on Days 1 and 5, at 5, 15, and 30 minutes and 1, 2, 4, 6, […] after the first injection on Day 1, immediately prior to (within 15 minutes) of injection of morning dose on Day 4, at 12 hours post Day 4 morning dose (before evening dose) and at 5, and 30 minutes and 1, 2, 4, 6, 8, 12, 24, 36 and 48 hours after the last (morning) injection on Day 5.

[2] = Linear calculated pharmacokinetic parameters following single dose IM injection; type: in vivo, human; settings: for Mean AUC0-∞ / Mean Cmax / Mean Tmax: prodrug, 228 mg/mL, calculated on linear assumptions; for AUC(0-inf) / Cmax / Tmax: human, in vivo, im
Text: The AUC0-∞ and Cmax values increase or decrease proportionally with the dosage of ceftaroline fosamil. Thus, one skilled in the art with the benefit of this disclosure may readily determine pharmacokinetic parameters for any specific dosage of ceftaroline fosamil (or other prodrugs of ceftaroline) used in a particular dosage form of the invention. The pro-drug in the blood is converted rapidly to the active moiety ceftaroline.
Linear calculated pharmacokinetic parameters for ceftaroline following single dose IM injection of ceftaroline fosamil using vials containing 668 mg ceftaroline fosamil (USAN) at 228 mg/mL, defined per Table 23 are shown in Table 26.
Linear calculated pharmacokinetic parameters for ceftaroline fosamil (INN) following single dose IM injection of ceftaroline fosamil USAN (at concentration of ceftaroline fosamil (anhydrous, acetate free basis of 228 mg/mL, defined per Table 23) are shown in Table 27.

[3] = Part A: single-dose IM injection and IV infusion pharmacokinetic study in healthy human subjects; type: in vivo; settings: for Mean AUC0-∞ / Mean Cmax / Mean Tmax: prodrug; for AUC(0-inf): AUC0-∞; for half-life: T1/2
Procedure: as §1, §2, §3
Twenty four subjects (six subjects per treatment group) were randomized to one of four treatment groups (A-D): The following doses were administered using vials containing 668 mg ceftaroline fosamil (USAN, molecular formula C22H21N8O8PS4.C2H4O2.H2O, molecular weight 762.75).
as §4, §5, §6

[4] = tested on: aerobic and some anaerobic Gram-positive and Gram-negative bacteria; assay: In vitro antimicrobial spectrum (MIC90); type: cell-based; settings: read-out: minimum inhibitory concentration which inhibits 90% of the microbial strains in a given species (MIC90)
[5] = Aqueous solubility (stated in the description); type: physicochemical; settings: water
[6] = prodrug in plasma, Treatment E: 600 mg (INN) IM q12h, Day 5, 228 mg/mL
[7] = prodrug in plasma, Treatment E: 600 mg (INN) IM, Day 1, 228 mg/mL
[8] = single dose IM ceftaroline fosamil (USAN) 223 mg (≡200 mg INN)
[9] = single dose IM ceftaroline fosamil (USAN) 557 mg (≡500 mg INN)
[10] = single dose IM ceftaroline fosamil (USAN) 891 mg (≡800 mg INN)
[11] = single dose IM ceftaroline fosamil (USAN) 1337 mg (≡1200 mg INN)
[12] = single dose IM ceftaroline fosamil (USAN) 2005 mg (≡1800 mg INN)
[13] = prodrug in plasma, Treatment A: 400 mg (INN) IM, 228 mg/mL
[14] = prodrug in plasma, Treatment B: 600 mg (INN) IM, 165 mg/mL
[15] = prodrug in plasma, Treatment C: 600 mg (INN) IM, Day 1, 228 mg/mL
[16] = prodrug in plasma, Treatment C: 600 mg (INN) IV infusion over 60 mins, Day 8
[17] = prodrug in plasma, Treatment D: 1000 mg (INN) IM, 228 mg/mL
[18] = single dose IM ceftaroline fosamil (USAN) 446 mg (≡400 mg INN), 228 mg/mL
[19] = single dose IM ceftaroline fosamil (USAN) 668 mg (≡600 mg INN), 228 mg/mL
[20] = single dose IM ceftaroline fosamil (USAN) 1114 mg (≡1000 mg INN), 228 mg/mL
[21] = human, in vivo, im, 600 mg, AUC0-t

Structure (SMILES): CCO/N=C(\C(=O)N[C@@H]1C(=O)N2C(C(=O)[O-])=C(Sc3nc(-c4cc[n+](C)cc4)cs3)CS[C@H]12)c1nsc(NP(=O)(O)O)n1 [Ceftaroline Fosamil (INN), 4-[2-[[(6R,7R)-2-carboxy-7-[[2(Z)-ethoxyimino-[5-(phosphonoamino)-1,2,4-thiadiazol-3-yl]acetyl]amino]-8-oxo-5-thia-1-azabicyclo[4.2.0]oct-2-en-3-yl]thio-4-thiazolyl]-1-methyl-, inner salt]
- AUC0-t [1, 6]: 4067 ± 782 ng·h/mL
- Cmax [1, 6]: 2223 ± 497 ng/mL
- T1/2 [1, 6]: 1.11 ± 0.35 h
- Tmax [1, 6]: 0.50 h
- AUC0-t [1, 7]: 3096 ± 850 ng·h/mL
- Cmax [1, 7]: 1575 ± 507 ng/mL
- T1/2 [1, 7]: 1.17 ± 0.52 h
- Tmax [1, 7]: 0.50 h
- Mean AUC0-∞ [2, 8]: 1162 ng·h/mL
- Mean Cmax [2, 8]: 484 ng/mL
- Mean Tmax [2, 8]: 0.3 h
- Mean AUC0-∞ [2, 9]: 2905 ng·h/mL
- Mean Cmax [2, 9]: 1210 ng/mL
- Mean Tmax [2, 9]: 0.5 h
- Mean AUC0-∞ [2, 10]: 4648 ng·h/mL
- Mean Cmax [2, 10]: 1936 ng/mL
- Mean Tmax [2, 10]: 0.5 h
- Mean AUC0-∞ [2, 11]: 6972 ng·h/mL
- Mean Cmax [2, 11]: 2904 ng/mL
- Mean Tmax [2, 11]: 0.5 h
- Mean AUC0-∞ [2, 12]: 10458 ng·h/mL
- Mean Cmax [2, 12]: 4356 ng/mL
- Mean Tmax [2, 12]: 0.5 h
- more bioavailable than an IV solution of the same strength ([3]; 600 mg (INN) IM solution at 165 mg/mL vs IV): over 50%
- AUC0-t [3, 13]: 1950 ± 401 ng·h/mL
- AUC0-∞ [3, 13]: 2144 ± 421 ng·h/mL
- Cmax [3, 13]: 1113 ± 418 ng/mL
- T1/2 [3, 13]: 1.21 ± 0.49 h
- Tmax [3, 13]: 0.29 h
- AUC0-t [3, 14]: 4846 ± 975 ng·h/mL
- AUC0-∞ [3, 14]: 5118 ± 985 ng·h/mL
- Cmax [3, 14]: 2722 ± 557 ng/mL
- T1/2 [3, 14]: 1.06 ± 0.33 h
- Tmax [3, 14]: 0.75 h
- AUC0-t [3, 15]: 3060 ± 475 ng·h/mL
- AUC0-∞ [3, 15]: 3242 ± 486 ng·h/mL
- Cmax [3, 15]: 1492 ± 275 ng/mL
- T1/2 [3, 15]: 1.57 ± 0.41 h
- Tmax [3, 15]: 0.50 h
- AUC0-t [3, 16]: 2734 ± 340 ng·h/mL
- AUC0-∞ [3, 16]: 2744 ± 344 ng·h/mL
- Cmax [3, 16]: 3549 ± 465 ng/mL
- T1/2 [3, 16]: 0.07 ± 0.03 h
- Tmax [3, 16]: 0.67 h
- AUC0-t [3, 17]: 5791 ± 2795 ng·h/mL
- AUC0-∞ [3, 17]: 6229 ± 2829 ng·h/mL
- Cmax [3, 17]: 2239 ± 657 ng/mL
- T1/2 [3, 17]: 1.87 ± 0.90 h
- Tmax [3, 17]: 0.38 h
- Mean AUC0-∞ [3, 18]: 2144 ng·h/mL
- Mean Cmax [3, 18]: 1113 ng/mL
- Mean Tmax [3, 18]: 0.29 h
- Mean AUC0-∞ [3, 19]: 3242 ng·h/mL
- Mean Cmax [3, 19]: 1492 ng/mL
- Mean Tmax [3, 19]: 0.5 h
- Mean AUC0-∞ [3, 20]: 6229 ng·h/mL
- Mean Cmax [3, 20]: 2238 ng/mL
- Mean Tmax [3, 20]: 0.5 h

Structure (SMILES): CCO/N=C(\C(=O)N[C@@H]1C(=O)N2C(C(=O)[O-])=C(Sc3nc(-c4cc[n+](C)cc4)cs3)CS[C@H]12)c1nsc(N)n1 [Ceftaroline, ceftaroline]
- MIC90 [4]: ≤ 2000 µg/mL
- solubility [5]: 2000 to 3000 µg/mL (≈ 3.31 to 4.96 mM)
- AUC0-t ([1]; human, in vivo, im, 600 mg): 65407 ± 11807 ng·h/mL
- T1/2 ([1]; human, in vivo, im, 600 mg): 2.51 ± 0.45 h
- AUC0-t [1, 21]: 55300 ± 11100 ng·h/mL
- half-life ([1]; human, in vivo, im, 600 mg, T1/2): 2.54 ± 0.63 h
- AUC(0-inf) ([2]; 223 mg): 17800 ng·h/mL
- Cmax ([2]; 223 mg): 3490 ng/mL
- Tmax ([2]; 223 mg): 1.5 h
- AUC(0-inf) ([2]; 557 mg): 43200 ng·h/mL
- Cmax ([2]; 557 mg): 7900 ng/mL
- Tmax ([2]; 557 mg): 2 h
- AUC(0-inf) ([2]; 891 mg): 81800 ng·h/mL
- Cmax ([2]; 891 mg): 12600 ng/mL
- Tmax ([2]; 891 mg): 2 h
- AUC(0-inf) ([2]; 1337 mg): 133000 ng·h/mL
- Cmax ([2]; 1337 mg): 18800 ng/mL
- Tmax ([2]; 1337 mg): 2 h
- AUC(0-inf) ([2]; 2005 mg): 211000 ng·h/mL
- Cmax ([2]; 2005 mg): 28100 ng/mL
- Tmax ([2]; 2005 mg): 2 h
- AUC greater at 165 mg/mL than at 228 mg/mL ([3]; human, in vivo): ~56%
- Bioavailability (absolute) ([3]; human, in vivo): 107 ± 7.1%
- Cmax greater at 165 mg/mL than at 228 mg/mL ([3]; human, in vivo): approximately 72%
- bioavailability ([3]; human, in vivo, Bioavailability (absolute)): ~100%
- Cmax ([3]; human, in vivo, im, 400 mg): 6971 ± 1616 ng/mL
- Tmax ([3]; human, in vivo, im, 400 mg): 1.5 (1.0-2.0) h
- AUC0-t ([3]; human, in vivo, im, 400 mg, AUC0-t): 35300 ± 6160 ng·h/mL
- AUC(0-inf) ([3]; human, in vivo, im, 400 mg): 35600 ± 6130 ng·h/mL
- half-life ([3]; human, in vivo, im, 400 mg): 2.36 ± 0.22 h
- AUC0-t ([3]; human, in vivo, im, 600 mg): 73439 ± 12080 ng·h/mL
- AUC0-∞ ([3]; human, in vivo, im, 600 mg): 73826 ± 12031 ng·h/mL
- T1/2 ([3]; human, in vivo, im, 600 mg): 2.27 ± 0.16 h
- Tmax ([3]; human, in vivo, im, 600 mg): 2.0 (1.2-2.0) h
- AUC0-t [3, 21]: 47500 ± 4010 ng·h/mL
- AUC(0-inf) ([3]; human, in vivo, im, 600 mg): 48100 ± 3850 ng·h/mL
- half-life ([3]; human, in vivo, im, 600 mg): 2.55 ± 0.49 h
- Tmax ([3]; human, in vivo, im, 600 mg, Tmax): 2 h
- Cmax ([3]; human, in vivo, im, 1000 mg): 15997 ± 3739 ng/mL
- AUC0-t ([3]; human, in vivo, im, 1000 mg, AUC0-t): 110000 ± 31300 ng·h/mL
- AUC(0-inf) ([3]; human, in vivo, im, 1000 mg): 110000 ± 31300 ng·h/mL
- half-life ([3]; human, in vivo, im, 1000 mg): 2.68 ± 0.31 h
- Tmax ([3]; human, in vivo, im, 1000 mg, Tmax): 2 h
- Tmax ([3]; human, in vivo, im, Mean Tmax): 2 h
- Tmax ([3]; human, in vivo, im, Tmax following IM injection): 1 to 2 h
- Tmax ([3]; human, in vivo, iv): 1.0 (1.0-1.0) h
- half-life ([3]; human, in vivo, iv): 2.13 ± 0.31 h
- Tmax ([3]; human, in vivo, iv, Tmax following IV infusion): ~1 h
